Consider nine molecules from PMC11243256 (Molecules, 2024).

Like-named read-outs stand apart in the source and are kept apart here.

Experiment in all cases: microscale thermophoresis
What all share (assay type): binding
(Microscale thermophoresis detects binding through changes in fluorescence in a small temperature gradient.)

The target of one test is T1, PYL3 (Arabidopsis thaliana, UniProt Q9SSM7).
T1 construct: NT-647-NHS labelled
T1 sequence (Q9SSM7 1-209): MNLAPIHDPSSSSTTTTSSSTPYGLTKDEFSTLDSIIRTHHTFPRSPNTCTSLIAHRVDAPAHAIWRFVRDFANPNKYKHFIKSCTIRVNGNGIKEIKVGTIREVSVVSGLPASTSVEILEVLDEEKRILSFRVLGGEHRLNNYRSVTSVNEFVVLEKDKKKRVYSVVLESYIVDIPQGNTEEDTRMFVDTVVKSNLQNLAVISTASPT

The next test addresses T2, PYL10 (Arabidopsis thaliana, UniProt Q8H1R0).
T2 construct: NT-647-NHS labelled; 'monomer PYL10' in the docking section
T2 sequence (Q8H1R0 1-183): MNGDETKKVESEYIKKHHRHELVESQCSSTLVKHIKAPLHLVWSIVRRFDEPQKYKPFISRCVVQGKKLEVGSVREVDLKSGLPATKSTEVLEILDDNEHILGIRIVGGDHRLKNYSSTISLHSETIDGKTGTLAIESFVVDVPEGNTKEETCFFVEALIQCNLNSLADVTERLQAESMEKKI
The source says: microscale thermophoresis on PYL10

The target of the next test is T3, PYL6 (Arabidopsis thaliana, UniProt Q8S8E3).
T3 construct: NT-647-NHS labelled
T3 sequence (Q8S8E3 1-215): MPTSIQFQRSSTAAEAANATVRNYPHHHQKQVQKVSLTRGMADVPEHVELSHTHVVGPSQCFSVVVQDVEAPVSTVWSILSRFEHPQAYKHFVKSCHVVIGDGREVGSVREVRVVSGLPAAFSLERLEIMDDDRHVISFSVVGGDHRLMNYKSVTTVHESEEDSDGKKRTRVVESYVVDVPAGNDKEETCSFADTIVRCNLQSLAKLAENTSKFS
An excerpt: microscale thermophoresis on PYL6

The target of another test is T4, PYL2 (Arabidopsis thaliana, UniProt O80992).
T4 construct: NT-647-NHS labelled
T4 sequence (O80992 1-190): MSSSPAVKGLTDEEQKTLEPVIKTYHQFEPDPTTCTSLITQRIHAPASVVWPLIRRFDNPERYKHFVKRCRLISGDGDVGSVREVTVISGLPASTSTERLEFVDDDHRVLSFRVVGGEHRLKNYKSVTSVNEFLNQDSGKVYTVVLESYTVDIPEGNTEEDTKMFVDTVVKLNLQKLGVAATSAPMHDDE
An excerpt:
microscale thermophoresis on PYL2

The next test has as its target T5, PYR1 (Arabidopsis thaliana, UniProt O49686).
T5 construct: NT-647-NHS labelled; 'dimer PYR1' in the docking section
T5 sequence (O49686 1-191): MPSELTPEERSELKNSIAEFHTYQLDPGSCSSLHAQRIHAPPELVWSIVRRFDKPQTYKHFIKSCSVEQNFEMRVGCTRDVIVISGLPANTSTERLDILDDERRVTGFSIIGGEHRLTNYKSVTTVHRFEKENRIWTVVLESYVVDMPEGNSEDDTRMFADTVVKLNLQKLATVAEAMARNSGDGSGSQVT
An excerpt:
microscale thermophoresis on PYR1

Setting [1] is: PBS, NT-647-NHS-labelled receptor.

For orientation: Kd means the constant that tells how readily two partners part at equilibrium. `CCCCCCOc1ccc2c(c1)C(=O)C(C)(C)CC2(O)/C=C/C(C)=C\C(=O)O` (centres unmarked) [APA6]: the Kd at PYL3 stood at 4.09 ± 0.65 µM; at PYL10, 44.9 ± 8.09 µM; at PYL6, 1.62 ± 0.17 µM; on PYL2 it was 2.91 ± 0.17 µM; on PYR1, 121 ± 13.6 µM.
In the case of `CC(=C/C(=O)O)/C=C/C1(O)CC(C)(C)C(=O)c2cc(OCCCCc3ccccc3)ccc21` (centres unmarked) [APA11], the equilibrium dissociation constant (Kd) at PYL3 worked out at 3.11 ± 0.4 µM; at PYL10, 17.6 ± 2.11 µM; at PYL6, 0.9 ± 0.22 µM; at PYL2 it was 0.46 ± 0.09 µM; at PYR1 it was 59.4 ± 3.41 µM.
Consider `CC(=C/C(=O)O)/C=C/C1(O)CC(C)(C)C(=O)c2cc(OCCC(C)CC(C)(C)C)ccc21` (centres unmarked) [APA14], for which the Kd came to 5.18 ± 0.84 µM at PYL3; 45.5 ± 2.47 µM on PYL10; 2.55 ± 0.46 µM on PYL6; 0.11 ± 0.01 µM at PYL2; 60.8 ± 9.02 µM on PYR1.
Taken in the same sequence, the figures for `CC(=C/C(=O)O)/C=C/C1(O)CC(C)(C)C(=O)c2cc(OCCC(C)CCCC(C)C)ccc21` (centres unmarked) [APA15] were 7.95 ± 1.66 µM, 36.3 ± 2.18 µM, 1.99 ± 0.32 µM, 2.04 ± 0.29 µM and 37.9 ± 3.09 µM.
In the same order, the values of `CC(C)=CCCC(C)CCOc1ccc2c(c1)C(=O)C(C)(C)CC2(O)/C=C/C(C)=C\C(=O)O` (centres unmarked) [APA16] are 7.84 ± 0.95 µM, 65 ± 2.76 µM, 2.1 ± 0.31 µM, 5.84 ± 0.24 µM and 53.4 ± 4.71 µM.
Taken in the same sequence, the figures for `CCOCCOc1ccc2c(c1)C(=O)C(C)(C)CC2(O)/C=C/C(C)=C\C(=O)O` (centres unmarked) [APA17] were 19 ± 2.1 µM, 23.9 ± 2.68 µM, 13.1 ± 1.46 µM, 7.07 ± 0.21 µM and 42.2 ± 6.71 µM.
Regarding `COCCOCCOc1ccc2c(c1)C(=O)C(C)(C)CC2(O)/C=C/C(C)=C\C(=O)O` (centres unmarked) [APA18], the Kd at PYL3 worked out at 9.33 ± 1.39 µM; at PYL10, 37.5 ± 2.83 µM; at PYL6 it was 4.17 ± 0.93 µM; on PYL2 it was 0.14 ± 0.02 µM; at PYR1 it was 73.9 ± 5.28 µM.
With `CC1=CC(=O)CC(C)(C)[C@@]1(O)/C=C/C(C)=C\C(=O)O` [compound 1, ABA], the Kd worked out at 152 ± 31 µM at PYL10, 19.5 ± 3.92 µM on PYL6, 16.2 ± 4.84 µM at PYL2 and 188 ± 29 µM at PYR1.
As to iso-PhABA, the Kd is 16.3 ± 2.78 µM at PYL3 (setting [1]); 92 ± 5.13 µM on PYL10 (setting [1]); 6.77 ± 0.32 µM on PYL6 (setting [1]); 7.54 ± 2.36 µM at PYL2 (setting [1]); 187 ± 22.3 µM at PYR1 (setting [1]).
